Values of other authors as cited in article PMC3719006, “Safety, tolerability, pharmacokinetics, and pharmacodynamics of a long-acting release (LAR) formulation of pasireotide (SOM230) in patients with gastroenteropancreatic neuroendocrine tumors: results from a randomized, multicenter, open-label, phase I study” (Cancer Chemotherapy and Pharmacology, 2013).

Tests used:
[1] = test system: sst2 receptor
Source text: (§1) Somatostatin inhibits hormone release and cell growth through binding to specific, cell surface, G-protein–coupled receptors, of which five distinct subtypes (sst1–5) have been characterized. In pancreatic and gastrointestinal endocrine tumors, sst2 expression predominates, although multiple other subtypes have also been found. […] Development of the somatostatin an ...

[2] = test system: sst5 receptor
Source text: as §1

[3] = SC formulation
[4] = test system: somatostatin receptor subtypes (sst1–3,5); set-up: method as in PMID 17977644; conditions: four of the five somatostatin receptor subtypes
[5] = native somatostatin
Method: Somatostatin inhibits hormone release and cell growth through binding to specific, cell surface, G-protein–coupled receptors, of which five distinct subtypes (sst1–5) have been characterized. In pancreatic and gastrointestinal endocrine tumors, sst2 expression predominates, although multiple other subtypes have also been found. The limited clinical use of native somatostatin, because of its very short half-life (<3 min) and the impact of rebound hypersecretion, has necessitated the development of more clinically useful analogs. Development of the somatostatin an ...

In the case of octreotide, the binding affinity [1] is given as “binds with high affinity” and the binding affinity [2] is given as “lower binding affinity”.

In the case of pasireotide, the “PK exposure difference between patients with GEP NET and healthy volunteers” value [3] is listed as “twofold” and the binding affinity [4] is listed as “binds with high affinity”.

For “somatostatin: native hormone that inhibits hormone release and cell growth via sst1–5”, the half-life [5] is given as under 3 min.
